*1 amine or outer side, *2 acyl side, *3 side chain or, on linkers, in order; H or OH if unused. Where a SMILES comes first, the peptide text is derived from it. Bridges are numbered along the chain shown (N, C = ends). [ ]: non-standard residue; d: D form. ξ: configuration not given here. Trp(βS-Me) = C[C@@H](c1c[nH]c2ccccc12)[C@H](N)C(=O)O; Phe(3,4,5-F3) = N[C@@H](Cc1cc(F)c(F)c(F)c1)C(=O)O; Phe(3,4-F2) = N[C@@H](Cc1ccc(F)c(F)c1)C(=O)O; d(cisHyp) = O=C(O)[C@H]1C[C@@H](O)CN1; Bta = N[C@@H](Cc1csc2ccccc12)C(=O)O; Hyp = O=C(O)[C@@H]1C[C@@H](O)CN1; NMeF = CN[C@@H](Cc1ccccc1)C(=O)O; X1 = O=C([C@H]1COCCN1[*:1])[*:2]; dNMeF = CN[C@H](Cc1ccccc1)C(=O)O; dHyp = O=C(O)[C@H]1C[C@H](O)CN1; NMehSer = CN[C@@H](CCO)C(=O)O; NMeNle = CCCC[C@H](NC)C(=O)O; Pip = O=C(O)[C@@H]1CCCCN1; hSer = N[C@@H](CCO)C(=O)O; NMeA = CN[C@@H](C)C(=O)O; Orn = NCCC[C@H](N)C(=O)O; Dap = NC[C@H](N)C(=O)O; ξC = NC(CS)C(=O)O

In the first assay the target is T1, Human PD-L1/PD-1 (Homo sapiens, UniProt Q9NZQ7).
T1 construct: TVMV protease cleavage site (C); made in house; host or cells: HEK293T cells
T1 sequence (Q9NZQ7 with tags, fused parts or gaps): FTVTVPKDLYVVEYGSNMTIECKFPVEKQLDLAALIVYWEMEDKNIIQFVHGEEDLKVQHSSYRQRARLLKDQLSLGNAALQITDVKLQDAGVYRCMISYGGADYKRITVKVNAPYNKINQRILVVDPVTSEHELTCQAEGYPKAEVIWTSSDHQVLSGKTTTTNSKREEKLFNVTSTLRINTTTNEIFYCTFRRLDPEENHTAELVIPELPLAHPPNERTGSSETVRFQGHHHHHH
Put plainly: HTRF Human PD-L1/PD-1 binding assay (PD-1-Ig/PD-L1-His). The conditions noted are these: PD-L1-His 10 nM, PD-1-Ig 20 nM; class symbol; read-out: HTRF Human PD-L1/PD-1 Binding Assay IC50 Range. The essentials:
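Compound preincubated 15 min with PD-L1-His (10 nM final), then PD-1-Ig (20 nM final) added for 15 min in dPBS with 0.1% BSA and 0.05% Tween-20. Detection by Eu-cryptate anti-Ig (1 nM) and APC anti-His (20 nM) after 30 min; 665/620 nm HTRF ratio. Proteins expressed in HEK293T.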
For `CCCC[C@H]1C(=O)N(C)[C@@H](CCCC)C(=O)N[C@@H](C)C(=O)N[C@H](C(=O)NCC(N)=O)CSCC(=O)N[C@@H](Cc2ccc(O)cc2)C(=O)N(C)[C@@H](C)C(=O)N[C@@H](CC(=O)O)C(=O)N2CCC[C@H]2C(=O)N[C@@H](Cc2c[nH]cn2)C(=O)N[C@@H](CCC(N)=O)C(=O)N2C[C@H](O)C[C@H]2C(=O)N[C@@H]([C@@H](C)c2c[nH]c3ccccc23)C(=O)N[C@@H](CO)C(=O)N[C@@H](Cc2c[nH]c3ccccc23)C(=O)N1C` [Example 10553] ({CH2CO}-Y[NMeA]DPHQ[Hyp][Trp(βS-Me)]SW[NMeNle][NMeNle]ACG-NH2; thioether N-14), the IC50 is 1 to 9.9 nM.

`CCCC[C@H]1C(=O)N[C@@H](CC(N)=O)C(=O)N2CCC[C@H]2C(=O)N[C@@H](CO)C(=O)N[C@@H](CCO)C(=O)N2C[C@H](O)C[C@H]2C(=O)N[C@@H](Cc2c[nH]c3ccccc23)C(=O)N[C@@H](CO)C(=O)N[C@@H](Cc2c[nH]c3ccccc23)C(=O)N(C)[C@@H](C)C(=O)N(C)[C@@H](C)C(=O)N[C@@H](CCCCN)C(=O)NC(C(=O)NCC(N)=O)CSCC(=O)N[C@@H](Cc2ccc(O)cc2)C(=O)N1C` (some centres unmarked) [Example 10211] ({CH2CO}-Y[NMeNle]NPS[hSer][Hyp]WSW[NMeA][NMeA]K[ξC]G-NH2; thioether N-14): the IC50 was in the range of 1000 to 10000 nM.

As for `CCCC[C@H]1C(=O)N(C)[C@@H](CCCC)C(=O)N[C@@H](CC(C)C)C(=O)N[C@H](C(=O)NCC(N)=O)CSCC(=O)N[C@@H](Cc2ccc(O)cc2)C(=O)N2CCCC[C@H]2C(=O)N[C@@H](CC(=O)O)C(=O)N2CCC[C@H]2C(=O)N[C@@H](CN)C(=O)N[C@@H](CCC(=O)O)C(=O)N2C[C@H](O)C[C@H]2C(=O)N[C@@H](Cc2c[nH]c3ccccc23)C(=O)N[C@@H](CO)C(=O)N[C@@H](Cc2c[nH]c3ccccc23)C(=O)N1C` [Example 1272] ({CH2CO}-Y[Pip]DP[Dap]E[Hyp]WSW[NMeNle][NMeNle]LCG-NH2; thioether N-14), the IC50 was in the range of 1 to 9.9 nM.

Take `CCCC[C@H]1C(=O)N(C)[C@@H](CCCC)C(=O)N[C@@H](CCC(=O)O)C(=O)N[C@H](C(=O)NCC(N)=O)CSCC(=O)N[C@@H](Cc2ccc(O)cc2)C(=O)N(C)[C@@H](C)C(=O)N[C@@H](CC(=O)O)C(=O)N2CCC[C@H]2C(=O)N[C@@H](Cc2c[nH]cn2)C(=O)N[C@@H](CCC(N)=O)C(=O)N2C[C@H](O)C[C@H]2C(=O)N[C@@H]([C@@H](C)c2c[nH]c3ccccc23)C(=O)N[C@@H](CO)C(=O)N[C@@H](Cc2c[nH]c3ccccc23)C(=O)N1C` [Example 10552] ({CH2CO}-Y[NMeA]DPHQ[Hyp][Trp(βS-Me)]SW[NMeNle][NMeNle]ECG-NH2; thioether N-14): the IC50 lay in the range of 1 to 9.9 nM.

For the compound `CCCC[C@H]1C(=O)N(C)[C@@H](CCCC)C(=O)N[C@@H](CCCNC(=N)N)C(=O)NC(C(=O)NCC(N)=O)CSCC(=O)N[C@@H](Cc2ccc(O)cc2)C(=O)N(C)[C@@H](C)C(=O)N[C@@H](CC(N)=O)C(=O)N2CCC[C@H]2C(=O)N[C@@H](CC(N)=O)C(=O)N[C@@H](CC(N)=O)C(=O)N2C[C@H](O)C[C@H]2C(=O)N[C@@H](Cc2c[nH]c3ccccc23)C(=O)N[C@@H](CO)C(=O)N[C@@H](Cc2csc3ccccc23)C(=O)N1C` (some centres unmarked) [Example 10012] ({CH2CO}-Y[NMeA]NPNN[Hyp]WS[Bta][NMeNle][NMeNle]R[ξC]G-NH2; thioether N-14), the IC50 was in the range of 10 to 99.9 nM.

For the compound `CCCC[C@H]1C(=O)N[C@@H](CCC(=O)O)C(=O)N[C@H](C(=O)NCC(N)=O)CSCC(=O)N[C@@H](Cc2ccc(O)cc2)C(=O)N(C)[C@@H](C)C(=O)N[C@@H](CC(N)=O)C(=O)N2CCC[C@H]2C(=O)N[C@@H](Cc2c[nH]cn2)C(=O)N[C@@H](CCC(N)=O)C(=O)N2C[C@H](O)C[C@H]2C(=O)N[C@@H](Cc2c[nH]c3ccccc23)C(=O)N[C@@H](CO)C(=O)N[C@@H](Cc2c[nH]c3ccccc23)C(=O)N(C)[C@@H](CCOC)C(=O)N1C` [Example 10141] ({CH2CO}-Y[NMeA]NPHQ[Hyp]WSW[NMehSer](Me)[NMeNle]ECG-NH2; thioether N-14), the IC50 lay in the range of 10 to 99.9 nM.

For `COCC[C@H]1C(=O)N2C[C@@H](O)C[C@@H]2C(=O)N[C@@H](CC(=O)O)C(=O)N[C@@H](C(C)C)C(=O)N(C)[C@@H](Cc2ccccc2)C(=O)N[C@@H](Cc2ccc(O)cc2)C(=O)N2CCOC[C@@H]2C(=O)N[C@@H](Cc2c[nH]c3ccccc23)C(=O)N[C@@H](Cc2ccc(O)cc2)C(=O)N[C@@H](CCCN)C(=O)N[C@H](C(=O)NCC(N)=O)CSCC(=O)N[C@@H](Cc2cc(F)c(F)c(F)c2)C(=O)N(C)[C@@H](Cc2ccccc2)C(=O)N1C` [Example 9265] ({CH2CO}-[Phe(3,4,5-F3)][NMeF][NMehSer](Me)[dHyp]DV[NMeF]Y[X1]WY[Orn]CG-NH2; thioether N-13), the IC50 lay in the range of 1 to 9.9 nM.

Consider `COCC[C@H]1C(=O)N2C[C@@H](O)C[C@@H]2C(=O)N[C@@H](CC(=O)O)C(=O)N[C@@H](C(C)C)C(=O)N(C)[C@H](Cc2ccccc2)C(=O)N[C@@H](Cc2ccc(OC)cc2)C(=O)N2C[C@@H](O)C[C@@H]2C(=O)N[C@@H](Cc2c[nH]c3ccccc23)C(=O)N[C@@H](Cc2ccc(O)cc2)C(=O)N[C@@H](CC(C)C)C(=O)N[C@H](C(=O)NCC(N)=O)CSCC(=O)N[C@@H](Cc2ccc(F)c(F)c2)C(=O)N(C)[C@@H](Cc2ccccc2)C(=O)N1C` [Example 9236] ({CH2CO}-[Phe(3,4-F2)][NMeF][NMehSer](Me)[dHyp]DV[dNMeF]Y(Me)[dHyp]WYLCG-NH2; thioether N-13), for which the IC50 was in the range of 1 to 9.9 nM.

Regarding `COCC[C@H]1C(=O)N2C[C@@H](O)C[C@@H]2C(=O)N[C@@H](CC(=O)O)C(=O)N[C@@H](C(C)C)C(=O)N(C)[C@H](Cc2ccccc2)C(=O)N[C@@H](Cc2ccc(O)cc2)C(=O)N2C[C@@H](O)C[C@@H]2C(=O)N[C@@H](Cc2c[nH]c3ccccc23)C(=O)N[C@@H](Cc2ccc(O)cc2)C(=O)N[C@@H](CC(C)C)C(=O)N[C@H](C(=O)NCC(N)=O)CSCC(=O)N[C@@H](Cc2ccc(F)c(F)c2)C(=O)N(C)[C@@H](Cc2ccccc2)C(=O)N1C` [Example 9234] ({CH2CO}-[Phe(3,4-F2)][NMeF][NMehSer](Me)[dHyp]DV[dNMeF]Y[dHyp]WYLCG-NH2; thioether N-13), the IC50 fell in the range of 1 to 9.9 nM.

With `CCCC[C@H]1C(=O)N(C)[C@@H](CCCC)C(=O)N[C@@H](CCCNC(=N)N)C(=O)NC(C(=O)NCC(N)=O)CSCC(=O)N[C@@H](Cc2ccc(O)cc2)C(=O)N(C)[C@@H](C)C(=O)N[C@@H](CC(N)=O)C(=O)N2CCC[C@H]2C(=O)N[C@@H](CO)C(=O)N[C@@H](CO)C(=O)N2C[C@H](O)C[C@H]2C(=O)N[C@@H](Cc2c[nH]c3ccccc23)C(=O)N[C@@H](CO)C(=O)N[C@@H](Cc2csc3ccccc23)C(=O)N1C` (some centres unmarked) [Example 10016] ({CH2CO}-Y[NMeA]NPSS[Hyp]WS[Bta][NMeNle][NMeNle]R[ξC]G-NH2; thioether N-14), the IC50 is 10 to 99.9 nM.

Still in this assay, the particulars now being: PD-L1-His 10 nM, PD-1-Ig 20 nM; read-out: HTRF Human PD-L1/PD-1 Binding Assay IC50.
`CCCC[C@H]1C(=O)N2C[C@H](O)C[C@@H]2C(=O)N[C@@H](CC(=O)O)C(=O)N[C@@H](C(C)C)C(=O)N(C)[C@@H](Cc2ccccc2)C(=O)N[C@@H](CCC(N)=O)C(=O)N2C[C@H](O)C[C@@H]2C(=O)N[C@@H](Cc2c[nH]c3ccccc23)C(=O)N[C@@H](Cc2ccc(O)cc2)C(=O)N[C@@H](CN)C(=O)N[C@H](C(=O)NCC(N)=O)CSCC(=O)N[C@@H](Cc2cc(F)c(F)c(F)c2)C(=O)N(C)[C@@H](Cc2ccccc2)C(=O)N1C` [Example 9356] ({CH2CO}-[Phe(3,4,5-F3)][NMeF][NMeNle][d(cisHyp)]DV[NMeF]Q[d(cisHyp)]WY[Dap]CG-NH2; thioether N-13): the IC50 amounted to 151 nM.
